The values below are quoted from earlier work in patent US20130109707A1, “FLUOROURACIL DERIVATIVES” (Concert Pharmaceuticals ,Inc., priority 2010, published 2013).

SMILES strings stand for the structures.

The conditions of this series: patients treated with carmofur or with 5-fluorouracil; reported by Mixutani, Brain Nerve 2008.

For the compound `CCCCCCNC(=O)n1cc(F)c(=O)[nH]c1=O` [carmofur, 5-fluoro-N-hexyl-2,4-dioxo-pyrimidine-1-carboxamide], the cases of leukoencephalopathy was 0.026%.
With `O=c1[nH]cc(F)c(=O)[nH]1` [5-fluorouracil], the cases of leukoencephalopathy is recorded as 0.026%.
